Laboratory results as given in the supplement of paper PMC10331698.
± gives the standard deviation of the averaged measurements.

Legend:
Assay in all cases: level (log10 ratio to DMSO vehicle control); higher = higher biomarker level / cell amount than vehicle control
Conditions in all cases: in DMSO
[1] = compound: COC(=O)CCC(F)(F)C(F)(F)C(F)(F)C(F)(F)F [Methyl 2H,2H,3H,3H-perfluoroheptanoate]
Description: (§1)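 BioMAP Diversity Plus panel of 12 human primary cell co-culture systems (3C, 4H, LPS, SAg, BT, BF4T, BE3C, CASM3C, HDF3CGF, KF3CT, MyoF, Mphg). Compounds were added 1 h before stimulation and left for 24 h (MyoF 48 h; BT 72 h for soluble read-outs or 6 d for IgG). Biomarkers were read by ELISA, cytotoxicity by SRB, PBMC viability and proliferation by Alamar Blue. Each well value was divided by the mean of 8 DMSO control wells on the same plate and log10 transformed; duplicate blinded samples were tested at 4 concentrations.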

[2] = compound: FC(F)(F)C(F)(F)C(F)(F)C(F)(F)C(F)(F)C(F)(F)C(F)(F)C(F)(F)CCS [2-(Perfluorooctyl)ethanthiol]
Description: as §1

[3] = compound: NCC(F)(F)C(F)(F)C(F)(F)C(F)(F)C(F)(F)C(F)(F)C(F)(F)F [1H,1H-Perfluorooctylamine]
Description: as §1

Perfluorobutanoic acid = compound: O=C(O)C(F)(F)C(F)(F)C(F)(F)F [Perfluorobutanoic acid]
Description: as §1

[4] = compound: O=C(O)C(F)(F)C(F)(F)C(F)(F)OC(F)(C(F)(F)F)C(F)(F)F [Perfluoro-4-isopropoxybutanoic acid]
Description: as §1

[5] = compound: O=C(O)C(F)(F)C(F)(F)OC(F)(F)F [Perfluoro-3-methoxypropanoic acid]
Description: as §1

[6] = compound: OCCC(F)(F)C(F)(F)C(F)(F)C(F)(F)C(F)(F)C(F)(F)F [6:2 Fluorotelomer alcohol]
Description: as §1

Test System	level (log10) ([1]; 6700 nM)	level (log10) ([1]; 20000 nM)	level (log10) ([1]; 60000 nM)	level (log10) ([2]; 6700 nM)	level (log10) ([2]; 20000 nM)	level (log10) ([3]; 6700 nM)	level (log10) ([3]; 20000 nM)	level (log10) ([3]; 60000 nM)	level (log10) (Perfluorobutanoic acid; 6700 nM)	level (log10) (Perfluorobutanoic acid; 20000 nM)	level (log10) (Perfluorobutanoic acid; 60000 nM)	level (log10) ([4]; 6700 nM)	level (log10) ([4]; 20000 nM)	level (log10) ([4]; 60000 nM)	level (log10) ([5]; 6700 nM)	level (log10) ([5]; 20000 nM)	level (log10) ([5]; 60000 nM)	level (log10) ([6]; 6700 nM)	level (log10) ([6]; 20000 nM)
SAg:CD40	-0.042 ± 0.04	-0.0415 ± 0.04	-0.053 ± 0.065	0.0105 ± 0.011	0.006 ± 0.011	0.001 ± 0.02	-0.0115 ± 0.011	-0.002 ± 0.011	-0.0055 ± 0.026	-0.014 ± 0.02	-0.0015 ± 0.0092	0.0105 ± 0.023	0.0165 ± 0.005	-0.008 ± 0.018	0.013 ± 0.0071	0.01 ± 0.0042	-0.0055 ± 0.019	-0.003 ± 0.0085	0.0005 ± 0.0021
LPS:CCL2/MCP-1	-0.011 ± 0.013	-0.013 ± 0.0071	-0.0065 ± 0.00071	0.018	0.026 ± 0.013	-0.004 ± 0.031	-0.024 ± 0.014	-0.001 ± 0.0071	-0.011 ± 0.011	-0.01 ± 0.011	0.0085 ± 0.025	-0.0045 ± 0.016	0.022 ± 0.025	0.0725 ± 0.0035	-0.005 ± 0.0057	0.003 ± 0.0071	0.0055 ± 0.03	0.002 ± 0.0085	-0.022 ± 0.0071
LPS:SRB	0.006 ± 0.023	0.001 ± 0.011	-0.0045 ± 0.011	0.0025 ± 0.0078	-0.003 ± 0.014	-0.0005 ± 0.0035	-0.0025 ± 0.0092	0.006 ± 0.037	-0.006 ± 0.028	-0.013 ± 0.0071	-0.001 ± 0.0099	0.0075 ± 0.015	0.018 ± 0.0099	0.0215 ± 0.016	0.006 ± 0.0085	0.011 ± 0.0099	0.026 ± 0.0028	0.0095 ± 0.0078	0.004 ± 0.0071
LPS:IL-1alpha	-0.0265 ± 0.015	-0.0185 ± 0.018	0.0235 ± 0.016	-0.045 ± 0.0042	-0.012 ± 0.055	-0.04 ± 0.038	0.0105 ± 0.022	-0.0025 ± 0.03	-0.0225 ± 0.032	-0.0305 ± 0.019	-0.0035 ± 0.016	-0.043 ± 0.0071	-0.0015 ± 0.013	0.0205 ± 0.064	-0.025 ± 0.0071	-0.0285 ± 0.0078	0.0005 ± 0.0021	0 ± 0.045	-0.011 ± 0.016
SAg:CXCL9/MIG	-0.0195 ± 0.012	-0.0095 ± 0.0021	-0.0065 ± 0.018	0.0015 ± 0.016	0.01 ± 0.0042	-0.0035 ± 0.005	-0.019 ± 0.0057	-0.01 ± 0.0014	-0.0045 ± 0.005	-0.003 ± 0.016	-0.0065 ± 0.005	-0.007 ± 0.0099	0.002 ± 0.0042	0.002 ± 0.0071	0.001 ± 0.0057	0.006 ± 0.0042	-0.002 ± 0.0099	-0.0095 ± 0.0021	-0.0055 ± 0.00071
